This is an account of results in US20240382483A1, “HETEROCYCLIC EGFR INHIBITORS FOR USE IN THE TREATMENT OF CANCER” (Blueprint Medicines Corporation, priority 2021, published 2024).

Like-named read-outs stand apart in the source and are kept apart here. Some results are limits rather than exact numbers.

For orientation: IC50 means the concentration that gives 50% inhibition.

In assay [1] the target is T1, EGFR (L858R T790M C797S) (Homo sapiens, UniProt P00533, C797S/L858R/T790M).
T1 construct: purchased SignalChem E10-122VG
T1 sequence (P00533 25-1210 T790M/C797S/L858R): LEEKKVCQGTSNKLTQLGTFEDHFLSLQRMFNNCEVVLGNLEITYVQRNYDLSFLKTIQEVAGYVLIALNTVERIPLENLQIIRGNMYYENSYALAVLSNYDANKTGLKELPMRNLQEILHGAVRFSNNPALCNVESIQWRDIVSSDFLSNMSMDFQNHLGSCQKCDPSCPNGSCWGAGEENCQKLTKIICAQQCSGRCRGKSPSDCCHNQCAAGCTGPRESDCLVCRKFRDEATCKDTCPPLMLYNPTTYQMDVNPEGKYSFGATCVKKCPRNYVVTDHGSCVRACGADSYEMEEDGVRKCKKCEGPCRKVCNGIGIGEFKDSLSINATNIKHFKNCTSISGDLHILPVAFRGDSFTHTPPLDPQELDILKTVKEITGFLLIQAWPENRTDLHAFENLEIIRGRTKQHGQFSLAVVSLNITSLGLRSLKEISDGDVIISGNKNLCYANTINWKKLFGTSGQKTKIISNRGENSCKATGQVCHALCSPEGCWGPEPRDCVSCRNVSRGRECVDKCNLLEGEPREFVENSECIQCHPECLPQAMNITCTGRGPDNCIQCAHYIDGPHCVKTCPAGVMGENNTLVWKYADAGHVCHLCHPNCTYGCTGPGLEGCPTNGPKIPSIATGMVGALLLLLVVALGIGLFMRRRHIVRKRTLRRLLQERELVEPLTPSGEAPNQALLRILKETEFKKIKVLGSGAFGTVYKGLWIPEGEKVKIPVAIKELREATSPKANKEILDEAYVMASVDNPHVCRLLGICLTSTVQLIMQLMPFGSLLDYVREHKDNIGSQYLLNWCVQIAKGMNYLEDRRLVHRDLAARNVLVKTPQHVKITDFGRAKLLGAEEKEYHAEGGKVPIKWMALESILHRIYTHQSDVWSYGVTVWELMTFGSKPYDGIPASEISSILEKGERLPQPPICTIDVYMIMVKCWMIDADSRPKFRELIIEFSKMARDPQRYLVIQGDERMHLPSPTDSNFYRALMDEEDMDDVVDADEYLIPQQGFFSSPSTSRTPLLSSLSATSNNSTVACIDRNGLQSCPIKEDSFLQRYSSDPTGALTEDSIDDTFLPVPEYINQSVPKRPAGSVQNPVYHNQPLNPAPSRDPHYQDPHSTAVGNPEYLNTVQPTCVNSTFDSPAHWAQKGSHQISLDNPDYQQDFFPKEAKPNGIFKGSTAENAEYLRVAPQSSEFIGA
The experiment in a line: Biochemical EGFR inhibition assay (Caliper mobility shift), EGFR LRTMCS. The settings on record: LRTMCS (PH) IC50 (nM) @ 1 mM ATP (Num), EGFR LRTMCS mutant. An outline of the steps: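 Kinase reactions proceed at 25° C. to 10%–20% conversion of total peptide, are terminated with 35 mM EDTA, and the phosphopeptide is resolved from substrate by electrophoretic mobility shift. Apparent IC50 values come from plotting percent activity against log compound concentration.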

Assay [2] has as its target T2, intracellular phosphorylation of EGFR in NCI-H1975 cell line that harbors the EGFR L858R T790M mutations (Homo sapiens, UniProt P00533, L858R/T790M).
T2 construct: NCI-H1975 cell line that harbors the EGFR L858R T790M mutations (ATCC, CRL-5908); host or cells: NCI-H1975
Kind of assay: NCI-H1975 pEGFR AlphaLISA assay. It is filed as cell-based. The settings on record: NCI-H1975 cells (EGFR L858R T790M), p-EGFR (Tyr1068), 4-5 hours incubation. The method, then: On the next day, the test compounds and DMSO control were added into H1975 cell plate followed by incubation at 37C/5% CO2 for 4-5 hours. […] Then 5 μL of a donor bead mix was added to each well followed by overnight incubation at room temperature in dark. On the next day, the plate was read at a compatible plate reader to obtain pEGFR signal. Percent of pEGFR inhibition was plotted against log concentration of compounds to generate IC50 values.

Where [3] appears, read: read-out: Ext pEGFR H1975 GMean IC50 (nM) Protocol: @Pharmaron AlphaLISA (Num).

T2 sequence (P00533 25-1210 T790M/L858R): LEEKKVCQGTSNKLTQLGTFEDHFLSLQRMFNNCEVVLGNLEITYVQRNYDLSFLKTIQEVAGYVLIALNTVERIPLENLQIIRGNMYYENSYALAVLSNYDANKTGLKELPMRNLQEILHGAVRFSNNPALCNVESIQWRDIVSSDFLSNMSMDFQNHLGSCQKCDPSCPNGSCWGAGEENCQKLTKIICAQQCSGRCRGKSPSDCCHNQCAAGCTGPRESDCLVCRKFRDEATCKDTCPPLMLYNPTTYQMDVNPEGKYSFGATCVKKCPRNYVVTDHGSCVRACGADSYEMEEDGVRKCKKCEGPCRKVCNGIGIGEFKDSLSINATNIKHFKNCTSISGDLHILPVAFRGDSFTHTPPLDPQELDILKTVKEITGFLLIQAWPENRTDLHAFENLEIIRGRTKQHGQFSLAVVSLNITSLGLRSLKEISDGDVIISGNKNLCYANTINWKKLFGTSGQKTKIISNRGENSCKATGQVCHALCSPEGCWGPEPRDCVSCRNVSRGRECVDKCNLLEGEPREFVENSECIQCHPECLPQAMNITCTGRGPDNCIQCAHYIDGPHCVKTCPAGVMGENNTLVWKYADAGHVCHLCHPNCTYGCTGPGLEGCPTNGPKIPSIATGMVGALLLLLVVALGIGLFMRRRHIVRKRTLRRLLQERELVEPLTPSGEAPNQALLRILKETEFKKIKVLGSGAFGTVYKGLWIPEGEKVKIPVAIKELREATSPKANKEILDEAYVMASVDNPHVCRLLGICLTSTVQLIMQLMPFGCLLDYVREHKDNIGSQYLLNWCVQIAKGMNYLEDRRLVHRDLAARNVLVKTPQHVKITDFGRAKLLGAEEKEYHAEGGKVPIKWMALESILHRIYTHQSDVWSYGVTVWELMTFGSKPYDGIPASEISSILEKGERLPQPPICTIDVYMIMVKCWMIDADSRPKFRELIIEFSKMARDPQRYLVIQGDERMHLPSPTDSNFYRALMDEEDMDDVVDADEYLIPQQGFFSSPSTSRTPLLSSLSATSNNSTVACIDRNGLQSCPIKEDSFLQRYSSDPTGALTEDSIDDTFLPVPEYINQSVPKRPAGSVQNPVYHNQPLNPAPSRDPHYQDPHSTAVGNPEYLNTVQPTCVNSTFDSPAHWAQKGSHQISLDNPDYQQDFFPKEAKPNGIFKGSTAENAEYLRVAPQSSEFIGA

On to `C[C@H](c1cnc(N2CC[C@H]2C)c2cnc(Nc3ccnc(N4CC[C@@H](O)[C@@](C)(F)C4)n3)cc12)C1COC1` (single isomer, unassigned) [Example 176, (3S,4R)-3-fluoro-3-methyl-1-(4-((8-((R)-2-methylazetidin-1-yl)-5-((S)-1-(oxetan-3-yl)ethyl)-2,7-naphthyridin-3-yl)amino)pyrimidin-2-yl)piperidin-4-ol or (3S,4R)-3-fluoro-3-methyl-1-(4-((8-((R)-2-methylazetidin-1-yl)-5-((R)-1-(oxetan-3-yl)ethyl)-2,7-naphthyridin-3-yl)amino)pyrimidin-2-yl)piperidin-4-ol], for which the IC50 in assay [1] is under 15 nM; in assay [2] (setting [3]), 20 to 30 nM.

`C[C@@H]1[C@H](F)CN1c1ncc([C@@H](C)CO)c2cc(Nc3ccnc(N4CC[C@@H](O)[C@@](C)(F)C4)n3)ncc12` (single isomer, unassigned) [Example 209, (3S,4R)-3-fluoro-1-(4-((8-((2R,3R)-3-fluoro-2-methylazetidin-1-yl)-5-((R)-1-hydroxypropan-2-yl)-2,7-naphthyridin-3-yl)amino)pyrimidin-2-yl)-3-methylpiperidin-4-ol or (3S,4R)-3-fluoro-1-(4-((8-((2R,3R)-3-fluoro-2-methylazetidin-1-yl)-5-((S)-1-hydroxypropan-2-yl)-2,7-naphthyridin-3-yl)amino)pyrimidin-2-yl)-3-methylpiperidin-4-ol]: the IC50 in assay [1] was 15 to 20 nM; in assay [2] (setting [3]) it was over 50 nM.

In the case of `CC(C)c1cnc(N2CC3(CCS3(=O)=O)C2)c2cnc(Nc3ccnc(N4C[C@@H](F)[C@@H](O)C(C)(C)C4)n3)cc12` (single isomer, unassigned) [Example 132, 6-(6-((2-((4S,5R)-5-fluoro-4-hydroxy-3,3-dimethylpiperidin-1-yl)pyrimidin-4-yl)amino)-4-isopropyl-2,7-naphthyridin-1-yl)-1-thia-6-azaspiro[3.3]heptane 1,1-dioxide or 6-(6-((2-((4R,5S)-5-fluoro-4-hydroxy-3,3-dimethylpiperidin-1-yl)pyrimidin-4-yl)amino)-4-isopropyl-2,7-naphthyridin-1-yl)-1-thia-6-azaspiro[3.3]heptane 1,1-dioxide], the concentration for half-maximal inhibition (IC50) in assay [1] was under 15 nM; in assay [2] (setting [3]), 10 to 20 nM.

As to `CNC[C@@H]1CCCN1c1ncc(C(C)C)c2cc(Nc3ccnc(N4CC[C@@H](O)[C@@](C)(F)C4)n3)ncc12` [Example 197, (3S,4R)-3-fluoro-1-(4-((5-isopropyl-8-((S)-2-((methylamino)methyl)pyrrolidin-1-yl)-2,7-naphthyridin-3-yl)amino)pyrimidin-2-yl)-3-methylpiperidin-4-ol], the figures for the IC50 in assay [1] and in assay [2] (setting [3]) were under 15 nM and 30 to 50 nM, respectively.

`CC(C)c1cnc(N2C[C@](C)(O)[C@H]2C)c2cnc(Nc3ccnc(N4CC[C@@H](O)[C@@](C)(F)C4)n3)cc12` [Example 78, (3S,4R)-3-fluoro-1-(4-((8-((2R,3S)-3-hydroxy-2,3-dimethylazetidin-1-yl)-5-isopropyl-2,7-naphthyridin-3-yl)amino)pyrimidin-2-yl)-3-methylpiperidin-4-ol]: the IC50 in assay [1] is 15 to 20 nM; in assay [2] (setting [3]) it was 20 to 30 nM.

With `COCC1CN(c2ncc(C(C)C)c3cc(Nc4ccnc(N5CC[C@@H](O)[C@@](C)(F)C5)n4)ncc23)C1` [Example 66, (3S,4R)-3-fluoro-1-(4-((5-isopropyl-8-(3-(methoxymethyl)azetidin-1-yl)-2,7-naphthyridin-3-yl)amino)pyrimidin-2-yl)-3-methylpiperidin-4-ol], the results for the IC50 in assay [1] and in assay [2] (setting [3]) were 20 to 30 nM and 30 to 50 nM, respectively.

In the case of `CC(C)c1cnc(-c2cnn(C(F)F)c2)c2cnc(Nc3ccnc(N4CC[C@@H](O)[C@@](C)(F)C4)n3)cc12` [Example 16, (3S,4R)-1-(4-((8-(1-(difluoromethyl)-1H-pyrazol-4-yl)-5-isopropyl-2,7-naphthyridin-3-yl)amino)pyrimidin-2-yl)-3-fluoro-3-methylpiperidin-4-ol], the IC50 in assay [1] was 15 to 20 nM; in assay [2] (setting [3]) it was over 50 nM.

As to `CC(C)c1ccc(N2CCC2)c2cnc(Nc3ccnc(N4CC[C@@H](O)[C@@](C)(F)C4)n3)cc12` [Example 110, (3S,4R)-1-(4-((8-(azetidin-1-yl)-5-isopropylisoquinolin-3-yl)amino)pyrimidin-2-yl)-3-fluoro-3-methylpiperidin-4-ol], the IC50 in assay [1] is 30 to 100 nM; in assay [2] (setting [3]), over 50 nM.

As for `Cc1nnc(-c2cnc(C(C)C)c3cc(Nc4ccnc(N5CC[C@@H](O)[C@@](C)(F)C5)n4)ncc23)o1` [Example 7, (3S,4R)-3-fluoro-1-(4-((5-isopropyl-8-(5-methyl-1,3,4-oxadiazol-2-yl)-2,6-naphthyridin-3-yl)amino)pyrimidin-2-yl)-3-methylpiperidin-4-ol], the IC50 in assay [1] was 15 to 20 nM; in assay [2] (setting [3]) it was over 50 nM.

Consider `CC(C)c1cnc(N2C[C@@H](F)[C@H]2C)c2cnc(Nc3ccnc(N4CC[C@@H](O)[C@@](C)(F)C4)n3)cc12` (single isomer, unassigned) [Example 33, (3S,4R)-3-fluoro-1-(4-((8-((2R,3R)-3-fluoro-2-methylazetidin-1-yl)-5-isopropyl-2,7-naphthyridin-3-yl)amino)pyrimidin-2-yl)-3-methylpiperidin-4-ol or (3S,4R)-3-fluoro-1-(4-((8-((2S,3S)-3-fluoro-2-methylazetidin-1-yl)-5-isopropyl-2,7-naphthyridin-3-yl)amino)pyrimidin-2-yl)-3-methylpiperidin-4-ol], for which the IC50 in assay [1] is under 15 nM; in assay [2] (setting [3]), under 10 nM.

For `COP(=O)(CC1CN(c2ncc(C(C)C)c3cc(Nc4ccnc(N5CC[C@@H](O)[C@@](C)(F)C5)n4)ncc23)C1)OC` [Example 96, dimethyl ((1-(6-((2-((3S,4R)-3-fluoro-4-hydroxy-3-methylpiperidin-1-yl)pyrimidin-4-yl)amino)-4-isopropyl-2,7-naphthyridin-1-yl)azetidin-3-yl)methyl)phosphonate], the IC50 in assay [1] and in assay [2] (Ext pEGFR H1975 GMean IC50 (nM) Protocol: @Pharmaron AlphaLISA (Num)) was 20 to 30 nM each time.

Take `CC(C)c1cnc(N2CCC2)c2cnc(Nc3ccnc(N4CC[C@@H](O)[C@@H](F)C4)n3)cc12` [Example 152, (3S,4R)-1-(4-((8-(azetidin-1-yl)-5-isopropyl-2,7-naphthyridin-3-yl)amino)pyrimidin-2-yl)-3-fluoropiperidin-4-ol]: the IC50 in assay [1] is 15 to 20 nM; in assay [2] (setting [3]) it was 30 to 50 nM.

In the case of `CNC(=O)C1CN(c2ncc(C(C)C)c3cc(Nc4ccnc(N5CC[C@@H](O)[C@@](C)(F)C5)n4)ncc23)C1` [Example 80, 1-(6-((2-((3S,4R)-3-fluoro-4-hydroxy-3-methylpiperidin-1-yl)pyrimidin-4-yl)amino)-4-isopropyl-2,7-naphthyridin-1-yl)-N-methylazetidine-3-carboxamide], the 50% inhibitory concentration (IC50) in assay [1] was under 15 nM; in assay [2] (setting [3]), 30 to 50 nM.

As for `CO[C@@H]1CCN(c2nccc(Nc3cc4c(C(C)C)ncc(N5CC(C(=O)N(C)C)C5)c4cn3)n2)C[C@@H]1O` (single isomer, unassigned) [Example 121, 1-(7-((2-((3S,4R)-3-hydroxy-4-methoxypiperidin-1-yl)pyrimidin-4-yl)amino)-1-isopropyl-2,6-naphthyridin-4-yl)-N,N-dimethylazetidine-3-carboxamide or 1-(7-((2-((3R,4S)-3-hydroxy-4-methoxypiperidin-1-yl)pyrimidin-4-yl)amino)-1-isopropyl-2,6-naphthyridin-4-yl)-N,N-dimethylazetidine-3-carboxamide], the IC50 in assay [1] is 30 to 100 nM; in assay [2] (setting [3]), over 50 nM.

As for `CO[C@@H]1CCN(c2nccc(Nc3cc4c(C(C)C)cnc(N5C[C@H](O)[C@H]5C)c4cn3)n2)C[C@@H]1F` [Example 150, (2R,3S)-1-(6-((2-((3S,4R)-3-fluoro-4-methoxypiperidin-1-yl)pyrimidin-4-yl)amino)-4-isopropyl-2,7-naphthyridin-1-yl)-2-methylazetidin-3-ol], the IC50 in assay [1] was under 15 nM; in assay [2] (setting [3]), under 10 nM.

For `CC(C)c1cnc(N2CC[C@H]2C)c2cnc(Nc3cnnc(N4CC[C@@H](O)[C@@](C)(F)C4)n3)cc12` (single isomer, unassigned) [Example 179, (3S,4R)-3-fluoro-1-(5-((5-isopropyl-8-((R)-2-methylazetidin-1-yl)-2,7-naphthyridin-3-yl)amino)-1,2,4-triazin-3-yl)-3-methylpiperidin-4-ol or (3R,4S)-3-fluoro-1-(5-((5-isopropyl-8-((R)-2-methylazetidin-1-yl)-2,7-naphthyridin-3-yl)amino)-1,2,4-triazin-3-yl)-3-methylpiperidin-4-ol], the IC50 is under 15 nM in assay [1] and 10 to 20 nM in assay [2] (setting [3]).

Regarding `CC(C)c1cnc(N2CC(CP(C)(C)=O)C2)c2cnc(Nc3ccnc(N4CC[C@@H](O)[C@@](C)(F)C4)n3)cc12` [Example 79, ((1-(6-((2-((3S,4R)-3-fluoro-4-hydroxy-3-methylpiperidin-1-yl)pyrimidin-4-yl)amino)-4-isopropyl-2,7-naphthyridin-1-yl)azetidin-3-yl)methyl)dimethylphosphine oxide], the IC50 was 30 to 100 nM in assay [1] and over 50 nM in assay [2] (setting [3]).
